ChEMBL document CHEMBL1124960, “Histamine H3 ligands: just pharmacological tools or potential therapeutic agents?” (J Med Chem, 1990)

Assays:
Histamine H3 receptor [1] = biological target: T1, Histamine H3 receptor (Rattus norvegicus, UniProt Q9QYN8); assay: Evaluated for antagonist activity against Histamine H3 receptor and represented as KB.; type: functional
[2] = biological target: Histamine H2 receptor (Cavia porcellus) (UniProt P47747); assay: Evaluated for antagonist activity against histamine H2 receptor and represented as KB.; type: functional
[3] = biological target: Histamine H3 receptor (Rattus norvegicus) (UniProt Q9QYN8); assay: Evaluated for antagonist activity against histamine H3 receptor and represented as KB.; type: functional
Target sequence in this assay (Q9QYN8 whole entry): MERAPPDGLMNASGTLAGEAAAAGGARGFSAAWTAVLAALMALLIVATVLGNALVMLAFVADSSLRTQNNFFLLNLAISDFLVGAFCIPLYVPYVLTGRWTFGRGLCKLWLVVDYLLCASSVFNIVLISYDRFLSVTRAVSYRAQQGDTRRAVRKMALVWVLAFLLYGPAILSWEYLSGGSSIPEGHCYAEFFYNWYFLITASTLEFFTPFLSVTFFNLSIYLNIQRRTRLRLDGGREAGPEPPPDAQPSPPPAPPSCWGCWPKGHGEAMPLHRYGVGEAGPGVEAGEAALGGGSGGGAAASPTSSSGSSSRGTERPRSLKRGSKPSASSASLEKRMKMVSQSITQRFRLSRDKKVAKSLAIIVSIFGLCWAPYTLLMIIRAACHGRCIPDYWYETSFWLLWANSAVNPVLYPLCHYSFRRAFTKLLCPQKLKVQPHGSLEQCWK

[4] = biological target: Histamine H2 receptor (Cavia porcellus) (UniProt P47747); assay: Evaluated for activity against histamine H2 receptor in guinea pig gastric secretion and represented as alpha; type: tissue-based; details: Stomach
[5] = biological target: Histamine H1 receptor (Cavia porcellus) (UniProt P31389); assay: Evaluated for their activity at histamine H1 receptor in guinea pig ileum.; type: tissue-based
Rattus norvegicus [6] = species on record: Rattus norvegicus; assay: Evaluated for [3H]HA release at a frequency 33.3 Hz for 2 min at a concentration 10 E -5M.; type: functional
Rattus norvegicus [7] = species on record: Rattus norvegicus; assay: Evaluated for [3H]-HA release at a frequency 33.3 Hz for 2 min at a concentration 10 E -6M.; type: functional
Rattus norvegicus [8] = species on record: Rattus norvegicus; assay: Evaluated for [3H]-HA release at a frequency 10 Hz for 2 min at a concentration 10 E -5M; type: functional
Rattus norvegicus [9] = species on record: Rattus norvegicus; assay: Evaluated for [3H]HA release at a frequency 10 Hz for 2 min at a concentration 10 E -6M; type: functional
Rattus norvegicus [10] = species on record: Rattus norvegicus; assay: Evaluated for [3H]HA release at a frequency 10 Hz for 2 min at a concentration 10 E -7M; type: functional
Rattus norvegicus [11] = species on record: Rattus norvegicus; assay: Evaluated for [3H]HA release at a frequency 2 Hz for 2.5 min at a concentration 10 E -6M; type: functional
Rattus norvegicus [12] = species on record: Rattus norvegicus; assay: Evaluated for [3H]HA release at a frequency 20 Hz for 2 min at a concentration 10 E -5M; type: functional
Rattus norvegicus [13] = species on record: Rattus norvegicus; assay: Evaluated for [3H]HA release at a frequency 20 Hz for 2 min at a concentration 10 E -6M; type: functional
Rattus norvegicus [14] = species on record: Rattus norvegicus; assay: Evaluated for [3H]HA release at a frequency 20 Hz for 2 min at a concentration 10 E -7M; type: functional
[15] = biological target: Histamine H2 receptor (Cavia porcellus) (UniProt P47747); assay: Evaluated for activity against histamine H2 receptor in guinea pig gastric secretion and represented as intrinsic activity; details: Stomach
[16] = biological target: Histamine H2 receptor (Cavia porcellus) (UniProt P47747); assay: Evaluated for agonistic (intrinsic) activity at histamine H2 receptor of guinea pig atrium and is represented as intrinsic activity; type: functional, tissue-based; details: Cardiac atrium
[17] = biological target: Histamine H2 receptor (Cavia porcellus) (UniProt P47747); assay: Evaluated for agonistic activity at histamine H2 receptor of guinea pig atrium and is represented as potency; type: functional, tissue-based; details: Cardiac atrium
[18] = biological target: Histamine H1 receptor (Cavia porcellus) (UniProt P31389); assay: Evaluated for agonistic activity at histamine H1 receptor of guinea pig ileum and is represented as potency.; type: functional, tissue-based
[19] = biological target: Histamine H2 receptor (Cavia porcellus) (UniProt P47747); assay: Evaluated for agonistic activity at histamine H2 receptor of guinea pig atrium and is represented as intrinsic activity; type: functional, tissue-based; details: Cardiac atrium
[20] = biological target: Histamine H1 receptor (Cavia porcellus) (UniProt P31389); assay: Evaluated for agonistic activity at histamine H1 receptor of guinea pig ileum and is represented as intrinsic activity; type: functional, tissue-based
[21] = biological target: Histamine H2 receptor (Cavia porcellus) (UniProt P47747); assay: Evaluated for agonistic activity at histamine H2 receptor of guinea pig atrium and is represented as potency.; type: functional, tissue-based; details: Cardiac atrium
Histamine H3 receptor [22] = biological target: T1, Histamine H3 receptor; assay: Evaluated for antagonistic activity at histamine H3 receptor in rat cerebral cortex and is represented as Ki.; type: functional, tissue-based
[23] = biological target: Histamine H2 receptor (Cavia porcellus) (UniProt P47747); assay: Evaluated for their activity at histamine H2 receptor in guinea pig ileum.; type: tissue-based
Rattus norvegicus [24] = species on record: Rattus norvegicus; assay: Inhibition of [3H]histamine release from preloaded slices of rat cerebral cortex as pD2; type: functional
Rattus norvegicus [25] = species on record: Rattus norvegicus; assay: Relative inhibition of [3H]histamine release from pre-loaded slices of rat cerebral cortex; type: functional
[26] = biological target: Histamine H2 receptor (Cavia porcellus) (UniProt P47747); assay: Evaluated for activity against histamine H2 receptor in guinea pig gastric secretion and represented as pD2; type: tissue-based; details: Stomach
[27] = biological target: Histamine H2 receptor (Cavia porcellus) (UniProt P47747); assay: Evaluated for activity against histamine H2 receptor in guinea pig atrium and represented as alpha; type: tissue-based; details: Cardiac atrium
[28] = biological target: Histamine H2 receptor (Cavia porcellus) (UniProt P47747); assay: Evaluated for activity against histamine H2 receptor in guinea pig atrium and represented as intrinsic activity; details: Cardiac atrium
[29] = biological target: Histamine H3 receptor (Rattus norvegicus) (UniProt Q9QYN8); assay: Evaluated for activity against H3 receptor and represented as %recovery histamine release at a concentration 5 x 10 E -6M
Target sequence in this assay (Q9QYN8 whole entry, looked up): as the sequence (Q9QYN8 whole entry) above

[30] = biological target: Histamine H2 receptor (Cavia porcellus) (UniProt P47747); assay: Evaluated for activity at Histamine H2 receptor in guinea pig ileum; type: tissue-based
[31] = biological target: Histamine H1 receptor (Cavia porcellus) (UniProt P31389); assay: Evaluated for activity at Histamine H1 receptor in guinea pig ileum; type: tissue-based
Rattus norvegicus [32] = species on record: Rattus norvegicus; assay: Evaluated for inhibition of [3H]histamine release from preloaded slices and is represented as pD2.; type: functional
[33] = biological target: Histamine H2 receptor (Cavia porcellus) (UniProt P47747); details: Cardiac atrium
[34] = biological target: Histamine H1 receptor (Cavia porcellus) (UniProt P31389); details: Ileum
Rattus norvegicus [35] = species on record: Rattus norvegicus; assay: (§1) Histamine level after treatment was determined in colon.; type: functional
Rattus norvegicus [36] = species on record: Rattus norvegicus; assay: Histamine level after treatment was determined in adbominal skin.; type: functional
Rattus norvegicus [37] = species on record: Rattus norvegicus; assay: Histamine level after treatment was determined in cerebral cortex; type: functional
Rattus norvegicus [38] = species on record: Rattus norvegicus; assay: Histamine level after treatment was determined in hypothalamus.; type: functional
Rattus norvegicus [39] = species on record: Rattus norvegicus; assay: Histamine level after treatment was determined in spleen; type: functional
Rattus norvegicus [40] = species on record: Rattus norvegicus; assay: as §1; type: functional; remark: listed apart in the source
[41] = biological target: Histamine H3 receptor (Rattus norvegicus) (UniProt Q9QYN8); assay: Evaluated for activity against H3 receptor and represented as %recovery histamine release at a concentration 5 x 10 E -6M.
Target sequence in this assay (Q9QYN8 whole entry, looked up): as the sequence (Q9QYN8 whole entry) above

Histamine H3 receptor [42] = biological target: T1, Histamine H3 receptor; assay: Evaluated for antagonistic activity at histamine H3 receptor in rat cerebral cortex and is represented as Ki; type: functional, tissue-based
Histamine H3 receptor [43] = biological target: T1, Histamine H3 receptor; assay: Evaluated for antagonist activity against histamine H3 receptor and is represented as -log Ki.; type: functional

Sequence of Histamine H1 receptor (Cavia porcellus) (P31389 whole entry): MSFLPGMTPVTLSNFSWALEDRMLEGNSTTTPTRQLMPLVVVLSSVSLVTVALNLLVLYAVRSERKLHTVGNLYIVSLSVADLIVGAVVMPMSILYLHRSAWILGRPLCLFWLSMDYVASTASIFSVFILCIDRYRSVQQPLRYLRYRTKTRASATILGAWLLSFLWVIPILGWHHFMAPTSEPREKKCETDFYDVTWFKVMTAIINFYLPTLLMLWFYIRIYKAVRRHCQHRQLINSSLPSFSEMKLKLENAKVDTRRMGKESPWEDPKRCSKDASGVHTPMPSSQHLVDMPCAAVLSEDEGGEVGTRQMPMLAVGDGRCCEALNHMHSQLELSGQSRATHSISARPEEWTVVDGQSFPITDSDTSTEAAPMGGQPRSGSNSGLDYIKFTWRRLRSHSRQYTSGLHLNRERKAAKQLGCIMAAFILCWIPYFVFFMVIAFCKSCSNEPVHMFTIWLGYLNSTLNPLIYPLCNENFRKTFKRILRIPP
Sequence of Histamine H2 receptor (Cavia porcellus) (P47747 whole entry): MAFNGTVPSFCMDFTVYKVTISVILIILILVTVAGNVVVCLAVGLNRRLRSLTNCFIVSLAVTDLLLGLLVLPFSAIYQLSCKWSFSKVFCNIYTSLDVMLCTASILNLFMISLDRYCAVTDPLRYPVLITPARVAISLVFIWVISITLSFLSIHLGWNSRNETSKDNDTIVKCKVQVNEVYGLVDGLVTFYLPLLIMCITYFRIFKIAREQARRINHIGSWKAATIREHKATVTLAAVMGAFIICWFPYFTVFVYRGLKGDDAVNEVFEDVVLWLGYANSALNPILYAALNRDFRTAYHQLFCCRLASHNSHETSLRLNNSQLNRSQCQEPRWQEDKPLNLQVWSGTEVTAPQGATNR
T1 sequence (Q9QYN8 whole entry): as the sequence (Q9QYN8 whole entry) above

O=C(CCCc1ccccc1)NCCc1cnc[nH]1
Ki (Histamine H3 receptor [1]): 79.4 nM

C/N=C(/NC#N)NCCSCc1csc(NC(=N)N)n1
KB [2]: 15 nM | KB [3]: > 12 µM

Cc1[nH]cnc1CSCCNC(=N)NCCCc1c[nH]cn1 [IMPROMIDINE]
H2 activity [4]: 1 | Activity [5]: < 0.001 | HA release (Rattus norvegicus [6]): 38.4 | HA release (Rattus norvegicus [7]): 39.5 | HA release (Rattus norvegicus [8]): 25.5 | HA release (Rattus norvegicus [9]): 25.9 | HA release (Rattus norvegicus [10]): 25.3 | HA release (Rattus norvegicus [11]): 14.3 | HA release (Rattus norvegicus [12]): 35.1 | HA release (Rattus norvegicus [13]): 35.5 | HA release (Rattus norvegicus [14]): 31.2 | intrinsic activity [15]: 1

Cc1nc[nH]c1CSCCN/C(N)=N/C(C)Cc1c[nH]cn1 (stereo unspecified)
Activity [16]: 0.8 | pD2 [17]: 6.48

Cc1nc[nH]c1CSCCNC(=N)N[C@H](C)Cc1c[nH]cn1 [SOPROMIDINE]
Potency [18]: 1.7 | Activity [19]: 1 | Activity [20]: 0.2 | pD2 [21]: 6.92 | Ki (Histamine H3 receptor [22]): 60 nM

CN(C)CC[C@H](c1ccc(Cl)cc1)c1ccccn1
KB [3]: > 0.058 µM

O=C(Cc1ccccc1)NCCc1c[nH]cn1
Ki (Histamine H3 receptor [1]): 1000 nM

CN(C)CCc1cnc[nH]1
Activity [23]: 51 | Activity [5]: 44 | pD2 (Rattus norvegicus [24]): 7.3 | Ratio_EC50 (Rattus norvegicus [25]): 170

CC(C)Cc1ccc(CSCC/N=C(\N)NCCCc2c[nH]cn2)o1
pD2 [4]: 8.5 | pD2 [26]: 7.8 | Activity [27]: 0.9 | intrinsic activity [28]: 0.9 | Release [29]: 100%

Cn1cnc(CCN)c1 [N-METHYLHISTAMINE]
Activity [30]: < 0.1 | Activity [31]: < 0.01 | Ratio_EC50 (Rattus norvegicus [25]): <4

CNCCc1cnc[nH]1
Activity [30]: 74 | Activity [31]: 72 | pD2 (Rattus norvegicus [32]): 8.7 | Ratio_EC50 (Rattus norvegicus [25]): 270

NCCc1c[nH]cn1 [HISTAMINE]
Activity [30]: 100 | Activity [31]: 100 | Ratio_EC50 (Rattus norvegicus [25]): 100 | pD2 [33]: 5.95 | Potency [34]: 100

C[C@@H](N)Cc1c[nH]cn1
Activity [30]: 1.02 | Activity [31]: 0.49 | Histamine level (Rattus norvegicus [35]): 81 | Histamine level (Rattus norvegicus [36]): 65 | Histamine level (Rattus norvegicus [37]): 68 | Histamine level (Rattus norvegicus [38]): 85 | Histamine level (Rattus norvegicus [39]): 69 | Ratio_EC50 (Rattus norvegicus [25]): 1550

S=C(NC1CCCCC1)N1CCC(c2cnc[nH]2)CC1 [THIOPERAMIDE]
Histamine level (Rattus norvegicus [36]): 75 | Histamine level (Rattus norvegicus [37]): 234 | Histamine level (Rattus norvegicus [40]): 80 | Histamine level (Rattus norvegicus [38]): 245 | Histamine level (Rattus norvegicus [39]): 123

N=C(N)Nc1nc(CSCC/N=C(\N)NCCCc2c[nH]cn2)cs1
pD2 [4]: 8.2 | pD2 [26]: 7.9 | Activity [27]: 1 | intrinsic activity [28]: 1 | Release [41]: 100%

CN/C(=N\CCSCc1nc[nH]c1C)NC#N
KB [3]: 33 µM

Cc1nc[nH]c1CSCCNC(N)=N[C@@H](C)Cc1cnc[nH]1
Ki (Histamine H3 receptor [42]): 40 nM

O=C(CCCC1CCCCC1)NCCc1cnc[nH]1
Ki (Histamine H3 receptor [43]): 50.1 nM
